Results as given in the NIST ThermoML archive (doi:10.1016/j.fluid.2012.12.036).
± gives the expanded uncertainty stated by the source.

Settings: Crystal; for vapor or sublimation pressure: Calculated from knudsen effusion weight loss; for Normal melting temperature: visual observation

Brc1ccc2cc3ccccc3cc2c1 [anthracene, 2-bromo-]
Settings	Normal melting temperature [°C]	vapor or sublimation pressure [kPa]
–	220.70 ± 0.41	–
334.8 K	–	5.41e-06 ± 6e-07
339.8 K	–	9.21e-06 ± 1e-06
344.9 K	–	1.56e-05 ± 1.7e-06
350 K	–	2.61e-05 ± 2.8e-06
355 K	–	4.15e-05 ± 4.5e-06
360.1 K	–	7.18e-05 ± 7.8e-06
365.2 K	–	0.000114 ± 1.2e-05
370.4 K	–	0.000184 ± 2e-05
375.3 K	–	0.000287 ± 3.1e-05
380.4 K	–	0.000437 ± 4.7e-05
385.4 K	–	0.000652 ± 7e-05
390.4 K	–	0.000887 ± 9.5e-05

c1ccc2cc3ccccc3cc2c1 [anthracene]
Settings	Normal melting temperature [°C]	vapor or sublimation pressure [kPa]
–	216.90 ± 0.41	–
322.9 K	–	1.82e-05 ± 2e-06
328 K	–	2.97e-05 ± 3.2e-06
333 K	–	5.58e-05 ± 6e-06
338.1 K	–	8.91e-05 ± 9.6e-06
343.1 K	–	0.000146 ± 1.6e-05
348.2 K	–	0.000233 ± 2.5e-05

Brc1c2ccccc2cc2ccccc12 [9-bromoanthracene]
Settings	Normal melting temperature [°C]	vapor or sublimation pressure [kPa]
–	101.00 ± 0.41	–
314.8 K	–	5.1e-06 ± 5.9e-07
319.8 K	–	1.06e-05 ± 1.2e-06
324.8 K	–	1.71e-05 ± 1.9e-06
329.8 K	–	3.26e-05 ± 3.5e-06
334.9 K	–	5.32e-05 ± 5.8e-06
339.9 K	–	9.3e-05 ± 1e-05
345 K	–	0.000158 ± 1.7e-05
350 K	–	0.000261 ± 2.8e-05
355 K	–	0.000418 ± 4.5e-05
